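Each compound was tested at five concentrations against cells in 96-well plates for 48 hours. GI50 = concentration required for 50% inhibition of growth.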 The source made the active and inactive calls. Cut-off read from the data, not from the text of the source: active = GI50 up to about 1.1 µM and inactive = higher.
What was measured:
Assay in all cases: NCI anticancer screen, dose series, 48 h
[1] = system: 786-0
[2] = system: A498
[3] = system: BT-549
[4] = system: EKVX
[5] = system: HOP-62
[6] = system: Hs-578T
[7] = system: MDA-N
[8] = system: MOLT-4
[9] = system: OVCAR-4
[10] = system: OVCAR-5
[11] = system: OVCAR-8
[12] = system: PC-3
[13] = system: RPMI-8226
[14] = system: SF-539
[15] = system: SK-OV-3
[16] = system: SR
[17] = system: T47D
[18] = system: UACC-62
[19] = system: TK-10

Measured: GI50

CCOC(=O)C(C)c1nc2cc(N3CCN(C)CC3)c(F)cc2[nH]c1=O (stereo not given)
inactive: [1] > 100 µM | [2] > 100 µM | [3] > 100 µM | [4] > 100 µM | [5] > 100 µM | [6] > 100 µM | [7] > 100 µM | [8] > 100 µM | [9] > 100 µM | [10] > 100 µM | [11] > 100 µM | [12] > 100 µM | [13] > 100 µM | [14] > 100 µM | [15] > 100 µM | [16] > 100 µM | [17] > 100 µM | [18] > 100 µM

CC(C)(C)C1=NC(=P(c2ccccc2)(c2ccccc2)c2ccccc2)C(=O)O1
inactive: [1] > 100 µM | [2] > 100 µM | [3] > 100 µM | [4] 22.5 µM | [5] > 100 µM | [6] > 100 µM | [7] > 100 µM | [8] > 100 µM | [10] > 100 µM | [11] > 100 µM | [12] > 100 µM | [13] > 100 µM | [15] > 100 µM | [16] > 100 µM | [17] > 100 µM | [19] > 100 µM | [18] > 100 µM

O=C(OC1OC2COC(=O)c3cc(O)c(O)c(O)c3-c3c(cc(O)c(O)c3O)C(=O)OC3C2OC(=O)[C@@]24CC(=O)[C@@](O)(OC25C(=O)O[C@H]2[C@@H](O)CO[C@@]25O)C2(O)Oc5c(O)c(O)cc(c5C24)C(=O)OC13)c1cc(O)c(O)c(O)c1 (stereo not given in full)
inactive: [1] 63.1 µM | [2] 9.12 µM | [3] > 100 µM | [4] 34.8 µM | [5] 74.5 µM | [6] > 100 µM | [7] 31.5 µM | [8] 40.5 µM | [9] 37.2 µM | [10] 47.2 µM | [11] 37.1 µM | [12] 42.3 µM | [13] 99.5 µM | [15] 83 µM | [16] 30.3 µM | [17] 74 µM | [18] 35.7 µM

CCCCCCCC(CC(=O)O)OC(=O)CC(CCCCCCC)OC1OC(C)C(O)C(O)C1OC1OC(C)C(O)C(O)C1O (stereo not given)
inactive: [1] > 100 µM | [2] > 100 µM | [3] > 100 µM | [4] > 100 µM | [5] > 100 µM | [6] 67.6 µM | [7] > 100 µM | [8] > 100 µM | [10] > 100 µM | [11] > 100 µM | [12] > 100 µM | [13] > 100 µM | [14] 39 µM | [15] > 100 µM | [16] > 100 µM | [17] > 100 µM | [18] > 100 µM

O=c1oc2ccccc2cc1P(=O)(O)O
inactive: [1] > 100 µM | [2] > 100 µM | [3] > 100 µM | [4] > 100 µM | [5] > 100 µM | [6] > 100 µM | [7] > 100 µM | [8] > 100 µM | [9] > 100 µM | [10] > 100 µM | [11] > 100 µM | [12] > 100 µM | [13] > 100 µM | [14] > 100 µM | [16] > 100 µM | [17] > 100 µM | [19] > 100 µM | [18] > 100 µM

Nc1nc(Cl)cc(Nc2ccc3c(c2)CCC3)n1
inactive: [1] 52.2 µM | [2] > 100 µM | [3] > 100 µM | [4] 32.1 µM | [6] > 100 µM | [7] > 100 µM | [8] 2.45 µM | [9] > 100 µM | [10] > 100 µM | [11] 80.9 µM | [12] 61.2 µM | [13] 19.7 µM | [14] > 100 µM | [15] > 100 µM | [16] 17.4 µM | [17] > 100 µM | [19] 65 µM | [18] > 100 µM

From ChEMBL document CHEMBL1201862, “PubChem BioAssay data set” (2004)
